# Laboratory results reported in US7064133B2, “Quinoline derivatives process of synthesis and medicaments containing these derivatives” (Bioalliance Pharma, priority 2001, dated 2006).
# Key:
# Type in all cases: cell-based
# HeLa = experiment: Cytotoxicity, MTT to formazan test, adherent cells; details: at 500 μM
# Description: (§1) The toxicity of the compounds is evaluated by a test of biotransformation of MTT to formazan by cellular mitochondrial dehydrogenases.
# CEM = experiment: Cytotoxicity, MTT to formazan test, cells in suspension; details: at 500 μM
# Description: as §1
# [1] = test system: integration of viral DNA into the host genome; experiment: Inhibition of the integration of viral DNA into the host genome (PCR, densitometry) in infected CEM cells; details: 24 hours
# Description: This test consists in bringing CEM cells into contact with the supernatant of infected cells containing the infectious virions. After 2 hours, the cells are washed and placed again in RPMI medium containing the compound according to the invention for 24 hours (BioA53). The DNA of the cells is then extracted using a genomic DNA preparation kit (QiaBlood, Qiagen™). This DNA is the target for PCR amplifications aimed at evaluating, on the one hand, the quantity of total viral DNA present in the solution, and, on the other hand, the quantity of viral DNA integrated into the cellular genome. The latter amplification takes place in two stages: the first step uses a PCR primer homologous to a sequence of the retroviral DNA; the second primer is homologous to the repetitive genomic Alu sequences. The second stage is a nested PCR which makes it possible to visualize the retroviral DNA.
# The quantity of DNA is evaluated by densitometry after separation of the amplification products on agarose gel.
SMILES,cytotoxicity (MTT) (HeLa),cytotoxicity (MTT) (CEM),"decrease in the quantity of DNA integrated ([1]; 50 μM, CEM cells)","inhibition of DNA integrated ([1]; 100 μM, CEM cells)",quantity of total viral DNA ([1]; treatment of CEM cells with the compound)
"O=C(NCc1ccc(O)c(O)c1)c1ccc2ccc(C(=O)[O-])c(O)c2n1.[Na+] [BioA53, sodium 2-(3,4-dihydroxybenzylcarbamoyl)-8-hydroxyquinoline-7-carboxylate]",lacks cytotoxicity,lacks cytotoxicity,at least 80%,inhibition of the entire DNA integrated,not affected
"O=C(NCc1ccc(O)cc1O)c1ccc2ccc(C(=O)[O-])c(O)c2n1.[Na+] [BioA163, sodium 2-(2,4-dihydroxybenzylcarbamoyl)-8-hydroxyquinoline-7-carboxylate]",lacks cytotoxicity,lacks cytotoxicity,,,
